Consider 24 compounds from patent US8853258B2, “C-linked hydroxamic acid derivatives useful as antibacterial agents” (Pfizer Inc., priority 2009, dated 2014).

Values after ≈ are worked out from the molar mass of the structure shown.

Assay type in all cases: cell-based
In data set [1] the test system is Pseudomonas aeruginosa UI-18: Wild-type (PA-7). Briefly: MIC determination (CLSI), PA-7. As to conditions: for MIC: Pseudomonas aeruginosa, Table 3, read-out: PA-7 MIC. A digest of the protocol: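 MIC by dilution method per CLSI M7-A7 and M100-S18 guidelines. Strain: wild-type Pseudomonas aeruginosa UI-18.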
The subject of data set [2] is Escherichia coli EC-1: VOGEL, mouse virulent. Briefly: MIC determination (CLSI), EC-1. As to conditions: for MIC: Escherichia coli, read-out: EC-1 MIC. A digest of the protocol: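 E. coli Vogel, a mouse-virulent strain (EC-1), was tested. MICs were set by dilution susceptibility testing per CLSI standards M7-A7/M100-S18.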
Data set [3] has as its system Klebsiella pneumoniae: Ciprofloxacin-resistant isolate, ESBL, clinical isolate (KP-3700). Nature of the data set: MIC determination (CLSI), KP-3700. A digest of the protocol: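 MIC measured by broth dilution according to CLSI M7-A7 and M100-S18 standards. Test organism was a ciprofloxacin-resistant, ESBL-expressing clinical isolate.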
Data set [4] deals with Acinetobacter baumanii/haemolyticus: Multidrug-resistant clinical isolate (AB-3167). Briefly: MIC determination (CLSI), AB-3167. As to conditions: for MIC: Acinetobacter baumannii, Table 3, read-out: AB-3167 MIC. A digest of the protocol:
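Multidrug-resistant clinical isolate AB-3167 (A. baumannii/haemolyticus) tested for minimum inhibitory concentration following CLSI dilution susceptibility standards M7-A7 and M100-S18.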

For `CC(CCc1ccc(-c2ccc(C[C@@H](N)C(=O)O)cc2)cc1)(C(=O)NO)S(C)(=O)=O` (stereo partly drawn) [Example 232], the “PA-7 MIC” value in data set [1] (Pseudomonas aeruginosa UI-18 (PA-7)) came out at 32 µg/mL. Besides, in data set [2] (Escherichia coli EC-1), the “EC-1 MIC” value is “≧64 mg/L”. The “KP-3700 MIC” value in data set [3] is “≧64 mg/L”. Besides, in data set [4] (Acinetobacter baumanii/haemolyticus AB-3167), the “AB-3167 MIC” value was “≧64 mg/L”.
By MIC is commonly meant the smallest concentration in the dilution series that meets the test's criterion for growth inhibition. On to `CC(CCc1ccc(OCc2ccc(C#N)cc2)cc1)(C(=O)NO)S(C)(=O)=O` (stereo not drawn) [Example 233, 4-{4-[(4-cyanobenzyl)oxy]phenyl}-N-hydroxy-2-methyl-2-(methylsulfonyl)butanamide], for which the MIC in data set [1] was 4 µg/mL (≈ 9.94 µM); in data set [2], 4 µg/mL (≈ 9.94 µM); in data set [4], not below 64 µg/mL. In addition, the “KP-3700 MIC” value in data set [3] was 16 µg/mL.
Regarding `CC(C)Oc1ccc(CCC(C)(C(=O)NO)S(C)(=O)=O)cc1` (stereo not drawn) [Example 234, N-hydroxy-4-(4-isopropoxyphenyl)-2-methyl-2-(methylsulfonyl)butanamide], the MIC is 8 µg/mL (≈ 24.3 µM) in data set [1], not below 64 µg/mL in data set [2] and not below 64 µg/mL in data set [4]. Further, the “KP-3700 MIC” value in data set [3] is “≧64 mg/L”.
As for `CCOc1ccc(CCC(C)(C(=O)NO)S(C)(=O)=O)cc1` (stereo not drawn) [Example 235, 4-(4-ethoxyphenyl)-N-hydroxy-2-methyl-2-(methylsulfonyl)butanamide], the MIC in data set [1] was 16 µg/mL (≈ 50.7 µM); in data set [2] it was 32 µg/mL (≈ 101 µM); in data set [4], not below 64 µg/mL. The “KP-3700 MIC” value in data set [3] is “≧64 mg/L”.
On the same counts, the results for `CCCCOc1ccc(CCC(C)(C(=O)NO)S(C)(=O)=O)cc1` (stereo not drawn) [Example 236, 4-(4-butoxyphenyl)-N-hydroxy-2-methyl-2-(methylsulfonyl)butanamide] are 8 µg/mL (≈ 23.3 µM), 16 µg/mL (≈ 46.6 µM), 32 µg/mL (≈ 93.2 µM) and “≧64 mg/L”.
For `CCCOc1ccc(CCC(C)(C(=O)NO)S(C)(=O)=O)cc1` (stereo not drawn) [Example 237, N-hydroxy-2-methyl-2-(methylsulfonyl)-4-(4-propoxyphenyl)butanamide], the MIC in data set [1] was 8 µg/mL (≈ 24.3 µM); in data set [2], 32 µg/mL (≈ 97.1 µM); in data set [4] it was not below 64 µg/mL. Moreover, the “KP-3700 MIC” value in data set [3] is “≧64 mg/L”.
`CC(CCc1ccc(OC2CCCCC2)cc1)(C(=O)NO)S(C)(=O)=O` (stereo not drawn) [Example 238, 4-[4-(cyclohexyloxy)phenyl]-N-hydroxy-2-methyl-2-(methylsulfonyl)butanamide]: the MIC in data set [1] was 8 µg/mL (≈ 21.7 µM); in data set [2], 32 µg/mL (≈ 86.6 µM); in data set [4], 32 µg/mL (≈ 86.6 µM). The “KP-3700 MIC” value in data set [3] was “≧64 mg/L”.
For `CCC(CC)COc1ccc(CCC(C)(C(=O)NO)S(C)(=O)=O)cc1` (stereo not drawn) [Example 239, 4-[4-(2-ethylbutoxy)phenyl]-N-hydroxy-2-methyl-2-(methylsulfonyl)butanamide], the minimal inhibitory concentration (MIC) in data set [1] stood at 8 µg/mL (≈ 21.5 µM); in data set [2], 16 µg/mL (≈ 43.1 µM); in data set [4], 4 µg/mL (≈ 10.8 µM). Moreover, the “KP-3700 MIC” value in data set [3] is reported as “≧64 mg/L”.
`CCC(c1ccccc1)c1noc(COc2ccc(CCC(C)(C(=O)NO)S(C)(=O)=O)cc2)n1` (stereo not drawn) [Example 240, N-hydroxy-2-methyl-2-(methylsulfonyl)-4-(4-{[3-(1-phenylpropyl)-1,2,4-oxadiazol-5-yl]methoxy}phenyl)butanamide]: the MIC was not below 64 µg/mL in data set [1], 32 µg/mL (≈ 65.6 µM) in data set [2] and not below 64 µg/mL in data set [4]. In data set [3], the “KP-3700 MIC” value is on record as “≧64 mg/L”.
On to `CC(CCc1ccc(OCc2nc(-c3cccc(F)c3)no2)cc1)(C(=O)NO)S(C)(=O)=O` (stereo not drawn) [Example 241, 4-(4-{[3-(3-fluorophenyl)-1,2,4-oxadiazol-5-yl]methoxy}phenyl)-N-hydroxy-2-methyl-2-(methylsulfonyl)butanamide], for which the MIC in data set [1] is 32 µg/mL (≈ 69 µM); in data set [2], 8 µg/mL (≈ 17.3 µM); in data set [4], 16 µg/mL (≈ 34.5 µM). Also, the “KP-3700 MIC” value in data set [3] is on record as “≧64 mg/L”.
In the case of `CC(CCc1ccc(OCCCOCc2ccccc2)cc1)(C(=O)NO)S(C)(=O)=O` (stereo not drawn) [Example 243, 4-{4-[3-(benzyloxy)propoxy]phenyl}-N-hydroxy-2-methyl-2-(methylsulfonyl)butanamide], the values for the MIC in data set [1], in data set [2] and in data set [4] were not below 64 µg/mL, 32 µg/mL (≈ 73.5 µM) and 32 µg/mL (≈ 73.5 µM), respectively. In addition, the “KP-3700 MIC” value in data set [3] is “≧64 mg/L”.
In the case of `Cc1ncccc1COc1ccc(CCC(C)(C(=O)NO)S(C)(=O)=O)cc1` (stereo not drawn) [Example 245, N-hydroxy-2-methyl-4-{4-[(2-methylpyridin-3-yl)methoxy]phenyl}-2-(methylsulfonyl)butanamide], the MIC in data set [1] was 32 µg/mL (≈ 81.5 µM); in data set [2] it was not below 64 µg/mL; in data set [4], not below 64 µg/mL. Moreover, in data set [3], the “KP-3700 MIC” value is “≧64 mg/L”.
Take `CC(CCc1ccc(OCC2CC2)cc1)(C(=O)NO)S(C)(=O)=O` (stereo not drawn) [Example 246, 4-[4-(cyclopropylmethoxy)phenyl]-N-hydroxy-2-methyl-2-(methylsulfonyl)butanamide]: the figures for the MIC in data set [1], in data set [2] and in data set [4] were not below 64 µg/mL, 32 µg/mL (≈ 93.7 µM) and not below 64 µg/mL, respectively. Also, in data set [3], the “KP-3700 MIC” value was “≧64 mg/L”.
Consider `CC(CCc1ccc(OCCOc2ccccc2)cc1)(C(=O)NO)S(C)(=O)=O` (stereo not drawn) [Example 248, N-hydroxy-2-methyl-2-(methylsulfonyl)-4-[4-(2-phenoxyethoxy)phenyl]butanamide], for which the MIC came to 32 µg/mL (≈ 78.5 µM) in data set [1], 2 µg/mL (≈ 4.91 µM) in data set [2] and 32 µg/mL (≈ 78.5 µM) in data set [4]. Also, the “KP-3700 MIC” value in data set [3] was 8 µg/mL.
`CC(CCc1ccc(OCc2ccc(F)cc2C(F)(F)F)cc1)(C(=O)NO)S(C)(=O)=O` (stereo not drawn) [Example 249, 4-(4-{[4-fluoro-2-(trifluoromethyl)benzyl]oxy}phenyl)-N-hydroxy-2-methyl-2-(methylsulfonyl)butanamide]: the MIC in data set [1], in data set [2] and in data set [4] was 16 µg/mL (≈ 34.5 µM) each time. For the same compound, the “KP-3700 MIC” value in data set [3] is recorded as “≧64 mg/L”.
As to `CC(CCc1ccc(OCc2cccc(Cl)c2)cc1)(C(=O)NO)S(C)(=O)=O` (stereo not drawn) [Example 250, 4-{4-[(3-chlorobenzyl)oxy]phenyl}-N-hydroxy-2-methyl-2-(methylsulfonyl)butanamide], the MIC in data set [1] amounted to 4 µg/mL (≈ 9.71 µM); in data set [2], 2 µg/mL (≈ 4.86 µM); in data set [4], 4 µg/mL (≈ 9.71 µM). Besides, the “KP-3700 MIC” value in data set [3] worked out at 8 µg/mL.
Regarding `CCCCCCOc1ccc(CCC(C)(C(=O)NO)S(C)(=O)=O)cc1` (stereo not drawn) [Example 252, 4-[4-(hexyloxy)phenyl]-N-hydroxy-2-methyl-2-(methylsulfonyl)butanamide], the MIC was determined as 16 µg/mL (≈ 43.1 µM) in data set [1], 8 µg/mL (≈ 21.5 µM) in data set [2] and 4 µg/mL (≈ 10.8 µM) in data set [4]. For the same compound, the “KP-3700 MIC” value in data set [3] worked out at 32 µg/mL.
In the case of `CC(CCc1ccc(OCc2nc(-c3cccc(F)c3F)no2)cc1)(C(=O)NO)S(C)(=O)=O` (stereo not drawn) [Example 253, 4-(4-{[3-(2,3-difluorophenyl)-1,2,4-oxadiazol-5-yl]methoxy}phenyl)-N-hydroxy-2-methyl-2-(methylsulfonyl)butanamide], the MIC in data set [1] is 32 µg/mL (≈ 66.5 µM); in data set [2], 8 µg/mL (≈ 16.6 µM); in data set [4], not below 64 µg/mL. The “KP-3700 MIC” value in data set [3] is given as “≧64 mg/L”.
On the same counts, the results for `Cc1ccc(C)c(COc2ccc(CCC(C)(C(=O)NO)S(C)(=O)=O)cc2)c1` (stereo not drawn) [Example 254, 4-{4-[(2,5-dimethylbenzyl)oxy]phenyl}-N-hydroxy-2-methyl-2-(methylsulfonyl)butanamide] are 16 µg/mL (≈ 39.5 µM), 8 µg/mL (≈ 19.7 µM), 16 µg/mL (≈ 39.5 µM) and “≧64 mg/L”.
On the same counts, the results for `CC(CCc1ccc(OCc2nc(-c3cc(F)cc(F)c3)no2)cc1)(C(=O)NO)S(C)(=O)=O` (stereo not drawn) [Example 255, 4-(4-{[3-(3,5-difluorophenyl)-1,2,4-oxadiazol-5-yl]methoxy}phenyl)-N-hydroxy-2-methyl-2-(methylsulfonyl)butanamide] are not below 64 µg/mL, 16 µg/mL (≈ 33.2 µM), 16 µg/mL (≈ 33.2 µM) and “≧64 mg/L”.
On the same counts, the results for `CC(CCc1ccc(OCc2nc(Cc3cc(F)ccc3F)no2)cc1)(C(=O)NO)S(C)(=O)=O` (stereo not drawn) [Example 256, 4-(4-{[3-(2,5-difluorobenzyl)-1,2,4-oxadiazol-5-yl]methoxy}phenyl)-N-hydroxy-2-methyl-2-(methylsulfonyl)butanamide] are not below 64 µg/mL, 32 µg/mL (≈ 64.6 µM), not below 64 µg/mL and “≧64 mg/L”.
For the compound `Cc1cc(C)cc(COc2ccc(CCC(C)(C(=O)NO)S(C)(=O)=O)cc2)c1` (stereo not drawn) [Example 257, 4-{4-[(3,5-dimethylbenzyl)oxy]phenyl}-N-hydroxy-2-methyl-2-(methylsulfonyl)butanamide], the MIC in data set [1] is 32 µg/mL (≈ 78.9 µM); in data set [2], 4 µg/mL (≈ 9.86 µM); in data set [4], not below 64 µg/mL. Also, the “KP-3700 MIC” value in data set [3] was 32 µg/mL.
Regarding `COc1ccc(F)c(-c2noc(COc3ccc(CCC(C)(C(=O)NO)S(C)(=O)=O)cc3)n2)c1` (stereo not drawn) [Example 259, 4-(4-{[3-(2-fluoro-5-methoxyphenyl)-1,2,4-oxadiazol-5-yl]methoxy}phenyl)-N-hydroxy-2-methyl-2-(methylsulfonyl)butanamide], the MIC was not below 64 µg/mL in data set [1], 16 µg/mL (≈ 32.4 µM) in data set [2] and not below 64 µg/mL in data set [4]. Further, in data set [3], the “KP-3700 MIC” value was “≧64 mg/L”.
As for `Cc1cccc(COc2ccc(CCC(C)(C(=O)NO)S(C)(=O)=O)cc2)c1F` (stereo not drawn) [Example 262, 4-{4-[(2-fluoro-3-methylbenzyl)oxy]phenyl}-N-hydroxy-2-methyl-2-(methylsulfonyl)butanamide], the values for the MIC in data set [1], in data set [2] and in data set [4] were 2 µg/mL (≈ 4.88 µM), 1 µg/mL (≈ 2.44 µM) and 16 µg/mL (≈ 39.1 µM), respectively. Further, in data set [3], the “KP-3700 MIC” value worked out at 8 µg/mL.
